In this test the target is T1, human B1R (Homo sapiens, UniProt P46663).
T1 construct: expressed in transfected cells; host or cells: CHO K1 cells (Chinese Hamster Ovary), stably transfected
T1 sequence (P46663 1-353): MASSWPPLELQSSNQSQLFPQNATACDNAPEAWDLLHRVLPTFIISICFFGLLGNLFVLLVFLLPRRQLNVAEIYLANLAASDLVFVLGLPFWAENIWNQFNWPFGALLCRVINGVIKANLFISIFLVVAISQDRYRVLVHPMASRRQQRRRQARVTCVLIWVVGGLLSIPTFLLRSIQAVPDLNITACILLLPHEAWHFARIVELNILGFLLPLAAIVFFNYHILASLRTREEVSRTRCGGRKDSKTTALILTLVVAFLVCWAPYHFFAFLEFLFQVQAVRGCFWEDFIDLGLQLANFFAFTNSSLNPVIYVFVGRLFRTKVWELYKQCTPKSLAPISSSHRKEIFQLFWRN
In words: Functional assay at bradykinin receptor 1 (B1R): Ca2+ fluorescence (Fluo-4) in FLIPR/Novostar, antagonist mode. The conditions noted are these: test substance 10 µM; CHO K1 cells stably transfected with human B1R gene (hB1R-Zellen); agonist Lys-Des-Arg9-Bradykinin at EC80; % inhibition relative to maximal achievable inhibition; read-out: % Inhibierung (human B1R) bei 10 µM. In kind it is cell-based. As for the experimental part:
Die agonistische bzw. antagonistische Wirkung von Substanzen kann am Bradykinin Rezeptor 1 (B1R) der Spezies Mensch und Ratte mit ektopisch exprimierenden Zelllinien (CHO K1 Zellen) und mit Hilfe eines Ca^2+-sensitiven Farbstoffs (Fluo-4) im Fluorescent Imaging Plate Reader (FLIPR) quantifiziert werden. Die Angabe in % Aktivierung wird bezogen auf das Ca^2+-Signal nach Zugabe von Lys-Des-Arg^9-Bradykinin ([…]), bzw. Des-Arg^9-Bradykinin (100 nM). Antagonisten führen zu einer Unterdrückung des Ca^2+-Einstroms nach der Zugabe des Agonisten. Angegeben werden % Inhibition im Vergleich zu der maximal erreichbaren Inhibition.
Die agonistische bzw. antagonistische Wirkung von Substanzen kann am Bradykinin Rezeptor 1 (B1R) der Spezies Mensch und Ratte mit folgendem Assay bestimmt werden. Gemäß diesem Assay wird der intrazelluläre Ca^2+-Anstieg nach Gabe eines B1 R Agonisten mit Hilfe eines Ca^2+-sensitiven Farbstoffs (Typ Fluo-4, Molecular Probes Europe BV, Leiden NL) im Fluorescent Imaging Plate Reader (FLIPR, Molecular Devices, Sunnyvale, USA) und/oder im Novostar (BMG Labtech GmbH, Offenburg, DE) quantifiziert.
Es werden Chinese Hamster Ovary Zellen (CHO K1 Zellen) verwendet, die stabil mit dem humanen B1 R-Gen (hB1R-Zellen) bzw. dem B1 R-Gen der Ratte (rB1R-Zellen) transfiziert sind. Für funktionelle Untersuchungen werden diese Zellen auf schwarze 96-Loch-Platten mit klarem Boden (BD Biosciences, Heidelberg, DE oder Greiner, Frickenhausen, DE) in einer Dichte von 20.000 - 35.000 Zellen/Loch ausplattiert. Über Nacht werden die Zellen bei 37°C und 5 % CO2 in Kulturmedium (hB1 R-Zellen: Nutrient Mixture Ham's F12, Gibco Invitrogen GmbH, Karlsruhe, Deutschland oder DMEM, Sigma-Aldrich, Taufkirchen, Deutschland; rB1R-Zellen: D-MEM/F12, Gibco Invitrogen GmbH, Karlsruhe, DE) mit 10 Vol-% FBS (Fetal bovine serum, Gibco Invitrogen GmbH, Karlsruhe, DE oder PAN Biotech GmbH, Aidenbach, DE) belassen. Am folgenden Tag werden die Zellen mit 2,13 µM Fluo-4 (Molecular Probes Europe BV, Leiden, NL) in HBSS-Puffer (Hank's buffered saline solution, Gibco Invitrogen GmbH, Karlsruhe, DE) mit 2,5 mM Probenecid (Sigma-Aldrich, Taufkirchen, DE) und 10 mM HEPES (Sigma-Aldrich, Taufkirchen, DE) für 60 min bei 37°C beladen. Anschließend werden die Platten 2 x mit HBSS-Puffer gewaschen und mit HBSS-Puffer versetzt, der zusätzlich 0,1 % BSA (bovines Serumalbumin; Sigma-Aldrich, Taufkirchen, Deutschland), 5,6 mM Glucose und 0,05 % Gelatine (Merck KGaA, Darmstadt, DE) enthält. Nach einer weiteren Inkubation von 20 Minuten bei RT werden die Platten zur Ca^2+-Messung im FLIPR oder Novostar eingesetzt. Alternativ wird mit Puffer A (15 mM HEPES, 80 mM NaCl, 5 mM KCI, 1,2 mM CaCl2, 0,7 mM MgSO4, 2g/L Glucose, 2,5 mM Probenecid) gewaschen und mit Puffer A versetzt mit 2,5 µM Fluo-4 und 0,025 % Pluronic F127 (Sigma-Aldrich, Taufkirchen, DE) beladen. Danach werden die Zellen 2 x mit Puffer A gewaschen und für 30 Minuten mit Puffer A, der zusätzlich 0,05 % BSA und 0,05 % Gelatine enthält bei RT inkubiert und danach zur Ca^2+-Messung im FLIPR oder Novostar eingesetzt.
Die Ca^2+-abhängige Fluoreszenz wird dabei vor und nach Zugabe von Substanzen gemessen (λex = 488 nm, λem = 540 nm). Die Quantifizierung erfolgt durch die Messung der höchsten Fluoreszenzintensität (FC, Fluorescence Counts) über die Zeit.
Das FLIPR-Protokoll besteht aus 2 Substanzzugaben, die im FLIPR pipettiert werden. Bei Messungen im Novostar wird nur die zweite Substanzzugabe im Gerät pipettiert. Beide Geräte messen die Fluoreszenzintensität über die Zeit. Zunächst werden Testsubstanzen (10 µM) auf die Zellen pipettiert und der intrazelluläre Ca^2+-Anstieg mit der Kontrolle (hB1 R: Lys-Des-Arg^9-Bradykinin >= 50 nM; rB1 R: Des-Arg^9-Bradykinin >= 1 µM) verglichen. Daraus ergibt sich die Angabe in % Aktivierung bezogen auf das Ca^2+-Signal nach Zugabe von Lys-Des-Arg^9-Bradykinin (>= 50 nM), bzw. Des-Arg^9-Bradykinin (>=1 µM). Nach 6-20 Minuten Inkubation werden Lys-Des-Arg^9-Bradykinin (hB1 R) bzw. […]

Consider `Cc1cc(S(=O)(=O)Cc2noc(CC(=O)NC3CCC(N4CCN(C)CC4)CC3(C)C)n2)c(C)cc1Cl` (stereo not shown) [CC-45, 2-[3-[[(4-Chlor-2,5-dimethyl-phenyl)sulfonyl]-methyl]-[1,2,4]oxadiazol-5-yl]-N-[2,2-dimethyl-4-(4-methyl-piperazin-1-yl)-cyclohexyl]-acetamid], for which the inhibition at 10 µM stood at 100%.

Consider `CC(=O)N1CCC(NC(=O)Cc2nc(CS(=O)(=O)c3cc(C)c(Cl)cc3C)no2)C(C)(C)C1` (stereo not shown) [CC-46, N-(1-Acetyl-3,3-dimethyl-piperidin-4-yl)-2-[3-[[(4-chlor-2,5-dimethyl-phenyl)sulfonyl]-methyl]-[1,2,4]oxadiazol-5-yl]-acetamid], for which the inhibition at 10 µM was found to be 64%.

With `CC(=O)N1CCC(NC(=O)Cc2nc(CS(=O)(=O)c3cccc(Cl)c3Cl)no2)C(C)(C)C1` (stereo not shown) [CC-47, N-(1-Acetyl-3,3-dimethyl-piperidin-4-yl)-2-[3-[[(2,3-dichlor-phenyl)sulfonyl]-methyl]-[1,2,4]oxa-diazol-5-yl]-acetamid], the inhibition at 10 µM amounted to 62%.

Take `CN1CCN(C2CCC(NC(=O)Cc3nc(CS(=O)(=O)c4cccc(Cl)c4Cl)no3)C(C)(C)C2)CC1` (stereo not shown) [CC-48, 2-[3-[[(2,3-Dichlor-phenyl)sulfonyl]-methyl]-[1,2,4]oxadiazol-5-yl]-N-[2,2-dimethyl-4-(4-methyl-piperazin-1-yl)-cyclohexyl]-acetamid]: the inhibition at 10 µM was found to be 81%.

Regarding `CN(C)C1CCC(NC(=O)Cc2nc(CS(=O)(=O)c3ccc(Cl)c(Cl)c3)no2)CC1` (stereo not shown) [CC-50, 2-[3-[[(3,4-Dichlorphenyl)sulfonyl]-methyl]-[1,2,4]oxadiazol-5-yl]-N-(4-dimethylamino-cyclohexyl)-acetamid], the inhibition at 10 µM came to 54%.

As to `COc1cc(C)c(S(=O)(=O)Cc2nc(CC(=O)NC3CCNCC3(C)C)no2)c(C)c1` (stereo not shown) [CC-52, N-(3,3-Dimethyl-piperidin-4-yl)-2-[5-[[(4-methoxy-2,6-dimethyl-phenyl)sulfonyl]-methyl]-[1,2,4]oxa-diazol-3-yl]-acetamid], the inhibition at 10 µM came to 100%.

Turning to `CC1(C)CC(N2CCCC2)CCC1NC(=O)Cc1nc(CS(=O)(=O)c2ccc(Cl)c(Cl)c2)no1` (stereo not shown) [CC-53, 2-[3-[[(3,4-Dichlorphenyl)sulfonyl]-methyl]-[1,2,4]oxadiazol-5-yl]-N-(2,2-dimethyl-4-pyrrolidin-1-yl-cyclohexyl)-acetamid], the inhibition at 10 µM was 100%.

For the compound `O=C(Cc1nc(CS(=O)(=O)c2cccc(Cl)c2Cl)no1)NC1CCNCC1` [CC-54, 2-[3-[[(2,3-Dichlor-phenyl)sulfonyl]-methyl]-[1,2,4]oxadiazol-5-yl]-N-piperidin-4-yl-acetamid], the inhibition at 10 µM was determined as 52%.

Regarding `Cc1cc(S(=O)(=O)Cc2noc(CC(=O)NC3CCC(NC4CC4)CC3(C)C)n2)c(C)cc1Cl` (stereo not shown) [CC-57, 2-[3-[[(4-Chlor-2,5-dimethyl-phenyl)sulfonyl]-methyl]-[1,2,4]oxadiazol-5-yl]-N-[4-(cyclopropyl-amino)-2,2-dimethyl-cyclohexyl]-acetamid], the inhibition at 10 µM worked out at 100%.

With `CN(C)C1CCC(NC(=O)Cc2nc(CS(=O)(=O)c3cccc(Cl)c3Cl)no2)CC1` (stereo not shown) [CC-59, 2-[3-[[(2,3-Dichlor-phenyl)sulfonyl]-methyl]-[1,2,4]oxadiazol-5-yl]-N-(4-dimethylamino-cyclohexyl)-acetamid], the inhibition at 10 µM stood at 63%.

On to `Cc1cc(S(=O)(=O)Cc2noc(CC(=O)NC3CCNCC3(C)C)n2)c(C)cc1Cl` (stereo not shown) [CC-62, 2-[3-[[(4-Chlor-2,5-dimethyl-phenyl)sulfonyl]-methyl]-[1,2,4]oxadiazol-5-yl]-N-(3,3-dimethyl-piperidin-4-yl)-acetamid], for which the inhibition at 10 µM turned out to be 54%.

For the compound `COc1cc(C)c(S(=O)(=O)Cc2nnc(CC(=O)NC3CCN(C(C)=O)CC3(C)C)o2)c(C)c1` (stereo not shown) [CC-69, N-(1-Acetyl-3,3-dimethyl-piperidin-4-yl)-2-[5-[[(4-methoxy-2,6-dimethyl-phenyl)sulfonyl]-methyl]-[1,3,4]oxadiazol-2-yl]-acetamid], the inhibition at 10 µM was found to be 81%.

With `Cc1cc(S(=O)(=O)Cc2noc(CC(=O)NC3CCC(N4CCCC4)CC3)n2)c(C)cc1Cl` (stereo not shown) [CC-70, 2-[3-[[(4-Chlor-2,5-dimethyl-phenyl)sulfonyl]-methyl]-[1,2,4]oxadiazol-5-yl]-N-(4-pyrrolidin-1-yl-cyclohexyl)-acetamid], the inhibition at 10 µM came to 93%.

Take `O=C(Cc1nc(CS(=O)(=O)c2cccc(Cl)c2Cl)no1)NC1CCC(N2CCCC2)CC1` (stereo not shown) [CC-71, 2-[3-[[(2,3-Dichlor-phenyl)sulfonyl]-methyl]-[1,2,4]oxadiazol-5-yl]-N-(4-pyrrolidin-1-yl-cyclohexyl)-acetamid]: the inhibition at 10 µM was found to be 73%.

For the compound `COCCN1CCC(NC(=O)Cc2nc(CS(=O)(=O)c3cccc(Cl)c3Cl)no2)C(C)(C)C1` (stereo not shown) [CC-72, 2-[3-[[(2,3-Dichlor-phenyl)sulfonyl]-methyl]-[1,2,4]oxadiazol-5-yl]-N-[1-(2-methoxy-ethyl)-3,3-di-methyl-piperidin-4-yl]-acetamid], the inhibition at 10 µM was 60%.

As to `COCCN1CCC(NC(=O)Cc2nc(CS(=O)(=O)c3cc(C)c(Cl)cc3C)no2)C(C)(C)C1` (stereo not shown) [CC-77, 2-[3-[[(4-Chlor-2,5-dimethyl-phenyl)sulfonyl]-methyl]-[1,2,4]oxadiazol-5-yl]-N-[1-(2-methoxy-ethyl)-3,3-dimethyl-piperidin-4-yl]-acetamid], the inhibition at 10 µM amounted to 80%.

With `Cc1cc(S(=O)(=O)Cc2noc(CC(=O)NC3CCC(c4ccncc4)CC3(C)C)n2)c(C)cc1Cl` (stereo not shown) [CC-80, 2-[3-[[(4-Chlor-2,5-dimethyl-phenyl)sulfonyl]-methyl]-[1,2,4]oxadiazol-5-yl]-N-(2,2-dimethyl-4-pyridin-4-yl-cyclohexyl)-acetamid], the inhibition at 10 µM is 99%.

For the compound `Cc1cc(S(=O)(=O)Cc2noc(CC(=O)NC3CCC(N(C)C)CC3)n2)c(C)cc1Cl` (stereo not shown) [CC-81, 2-[3-[[(4-Chlor-2,5-dimethyl-phenyl)sulfonyl]-methyl]-[1,2,4]oxadiazol-5-yl]-N-(4-dimethylamino-cyclohexyl)-acetamid], the inhibition at 10 µM was found to be 79%.

As to `COc1cc(C)c(S(=O)(=O)Cc2nnc(CC(=O)NC3CCC(N4CCN(C)CC4)CC3(C)C)o2)c(C)c1` (stereo not shown) [CC-86, N-[2,2-Dimethyl-4-(4-methyl-piperazin-1-yl)-cyclohexyl]-2-[5-[[(4-methoxy-2,6-dimethylphenyl)sulfonyl)-methyl]-[1,3,4]oxadiazol-2-yl]-acetamid], the inhibition at 10 µM came out at 100%.

The values above are taken from EP2857388A1, “Azoles containing sulfone” (Grünenthal GmbH, priority 2013, dated 2015).
